Experiments:
[1] = tested on: wild-type and CAR knockout mice; assay: APAP toxicity after pretreatment with inducers (serum ALT, histology); type: in vivo, mouse; conditions: APAP 250 mg/kg; for hepatotoxicity, inducer plus APAP: CAR null mice; for liver histology after pretreatment and APAP: wild-type animals; for ALT levels and hepatic necrosis, inducer plus APAP: wild-type, 24 hours
Procedure: CAR (+/+) or CAR (−/−) animals pretreated with phenobarbital (PB), TCPOBOP (TC), or vehicle alone were administered a 250 mg/kg dose of APAP by intraperitoneal injection (n=5–7 per treatment group) (FIG. 11A). Serum was collected and alanine aminotransferase (ALT) levels were measured after 24 hours. Liver sections from different treatments were examined by histological staining (FIG. 11B). Liver samples from all treated animals were analyzed but only representative histology is presented. […] CAR (+/+) or CAR (−/−) animals were pretreated with PB, TCPOBOP (TC), or vehicle alone for three days (FIG. 11C). […] Liver samples treated as indicated were collected two hours after APAP and GSH levels were measured (n=5–7) (FIG. 11D).
The effect of PB and the potent CAR agonist TCPOBOP on APAP toxicity was examined in wild-type and CAR knockout mice. Both strains of mice were treated with inducers or the vehicle control, followed by 250 mg/kg APAP. For these studies, mice were kept in a pathogen-free animal facility under standard 12 hour light/12 hour dark cycle and fed standard rodent chow and water ad libitum. At least five mice between 8 and 10 weeks old were used in each treatment group. For 3-day PB (100 mg/kg) treatment, mice were injected intraperitoneally three times, one injection per day. TCPOBOP (3 mg/kg) and/or APAP were injected intraperitoneally. Phenobarbital and TCPOBOP were suspended or dissolved in corn oil, and APAP was dissolved in basic PBS (pH=11). PB and APAP were purchased from Sigma (St Louis, Mo.); TCPOBOP was a gift from Dr. Stephen Safe.
For histologic examination of the treated mice, the left lobe of the livers was removed and immediately fixed in 4% formaldehyde-PBS solution, embedded in paraffin, sectioned at 5 μm, and stained with hematoxylin and eosin. Samples were examined under a light microscope. For RNA studies, total RNA was extracted using TRIzol Reagent (Invitrogen Life Technologies, Carlsbad, Calif.) according to the manufacture's instruction. Equivalent amount of RNA from 3–5 mice were pooled and 10 μg of each sample was subjected to northern blot analysis. […] Preparation of probes for CYP2B10 and CYP3A11 were described as previously (Wei et al., Nature 407:920–923, 2000 and Zelko et al., Mol Cell Biol 21:2838–2846, 2001). PCR primers used were: CYP1A2: 5′-[…]-3′ (SEQ ID NO: 19) and 5′-[…]-3′ (SEQ ID NO: 20), CYP2E1: 5′-[…]-3′ (SEQ ID NO: 21) and 5′-[…]-3′ (SEQ ID NO: 22), GSTPi: 5′-[…]-3′ (SEQ ID NO: 23) and 5′-[…]-3′ (SEQ ID NO: 24). Hepatic non-protein thiol was measured as an indication of hepatic GSH content. Mice were sacrificed two hours after intraperitoneal injection with APAP. Livers were removed and immediately homogenized in four volumes of 5% trichloroacetic acid and then centrifuged at 1,600×g for 15 minutes. Supernatant (0.5 ml) was mixed with 1.5 ml 0.1 mM Ellman's reagent [5,5′-dithio-bis(2-nitrobenzoic acid)] (Sigma, St Louis, Mo.) and allowed to stand at room temperature for 15 minutes. Absorbance was read at 412 nm using GSH solutions as quantitative standards.

murine CAR [2] = target: T1, murine CAR (Mus musculus, UniProt O35627); conditions: mice expressing only murine CAR (heterozygous, no transgene), 24 hours
T1 sequence (O35627 1-358): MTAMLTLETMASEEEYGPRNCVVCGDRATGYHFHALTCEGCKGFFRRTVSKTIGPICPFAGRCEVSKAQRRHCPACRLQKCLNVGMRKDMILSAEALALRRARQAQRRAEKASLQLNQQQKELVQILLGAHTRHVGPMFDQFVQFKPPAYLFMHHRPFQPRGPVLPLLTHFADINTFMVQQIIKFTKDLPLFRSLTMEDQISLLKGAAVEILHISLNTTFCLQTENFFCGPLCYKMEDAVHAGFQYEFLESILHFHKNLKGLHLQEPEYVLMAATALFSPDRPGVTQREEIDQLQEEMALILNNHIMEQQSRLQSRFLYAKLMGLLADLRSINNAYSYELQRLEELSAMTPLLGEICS
Procedure: (§1) Total RNA was prepared from the livers of the individual mice, and CYP2B10 mRNA expression was assessed by Northern blotting.
(§2) Mice heterozygous for the murine CAR gene mutation and lacking the human CAR transgene express only murine CAR. […] Mice homozygous for the murine CAR gene mutation and carrying the human CAR transgene express only human CAR in the liver.

murine CAR [3] = conditions: no functional CAR (homozygous mutation, no transgene), 24 hours
Procedure: as §1, §2

[4] = tested on: wild-type and CAR −/− mice; assay: Cocaine-mediated hepatotoxicity, serum ALT; conditions: for evidence of liver damage after cocaine: CAR −/− animals; for serum ALT as acute response to cocaine: male wild-type mice pretreated three days, cocaine 30 mg/kg
Procedure: FIG. 4 is a bar graph showing the effect of PB or TCPOBOP on cocaine-mediated hepatotoxicity, measured as serum alanine aminotransferase (ALT) activity. Male mice were pretreated with PB or TCPOBOP for three days. Twenty-four hours after the last dose, one injection of cocaine was given to the animals. Blood was drawn 20 hours after cocaine treatment for determination of serum ALT activity.
Blood was drawn from the eye for determination of serum ALT activity.

[5] = tested on: wild-type and CAR −/− mice; assay: Liver enlargement (liver mass relative to body weight); type: in vivo, mouse; conditions: for hyperplasia or hypertrophy in the liver: CAR knockout mice; for liver mass: three days of treatment
Procedure: FIG. 3A is a bar graph showing the liver enlargement and hepatocyte proliferation by PB or TCPOBOP. Mice (8–10 weeks old) were treated with PB or TCPOBOP for 3 days, and then both liver mass and body weight were measured. The data is presented as percentage of liver mass relative to total body weight.
This hepatomegaly is thought to be a reflection of both cellular hypertrophy and mitogenesis.

CYP enzyme activity = assay: Zoxazolamine paralysis test; conditions: for effect of pretreatment on paralysis: CAR −/− mice; for duration of zoxazolamine-induced paralysis: 3-day pretreatment, zoxazolamine 300 mg/kg i.p.; for animals that died: female CAR −/− mice after zoxazolamine; for effect of pretreatment on duration of paralysis: wild-type animals
Procedure: In these experiments, mice were pretreated for three days with PB or TCPOBOP, after which time they were given a single intraperitoneal injection of zoxazolamine (300 mg/kg). Paralysis time was recorded as the time when the mice were able to right themselves repeatedly.

Row | SMILES | hepatotoxicity, inducer plus APAP [1] | liver histology after pretreatment and APAP [1] | ALT levels and hepatic necrosis, inducer plus APAP [1] | induction of CYP2B10 mRNA (murine CAR [2]) | induction of CYP2B10 mRNA (murine CAR [3]) | evidence of liver damage after cocaine [4] | serum ALT as acute response to cocaine [4] | hyperplasia or hypertrophy in the liver [5] | liver mass ([5]; CAR −/− mice) | liver mass ([5]; wild-type mice) | effect of pretreatment on paralysis (CYP enzyme activity) | duration of zoxazolamine-induced paralysis (CYP enzyme activity; female CAR (+/+) mice) | duration of zoxazolamine-induced paralysis (CYP enzyme activity; female CAR (−/−) mice) | animals that died (CYP enzyme activity) | duration of zoxazolamine-induced paralysis (CYP enzyme activity; male CAR (+/+) mice) [min] | duration of zoxazolamine-induced paralysis (CYP enzyme activity; male CAR (−/−) mice) [min] | effect of pretreatment on duration of paralysis (CYP enzyme activity)
1 | Clc1cnc(Oc2ccc(Oc3ncc(Cl)cc3Cl)cc2)c(Cl)c1 [TCPOBOP, 1,4-bis[2-(3,5-dichloropyridyloxy)]benzene] | no such hepatotoxicity | extensive hepatic centrilobular necrosis | strongly elevated ALT levels and hepatic necrosis | induction of CYP2B10 mRNA | no response | not observed | significant increase | not detected | did not show any evidence of increased liver mass | increase in liver mass | not affected | not paralyzed | died | two animals from each group | <20 | >300 | significantly decreased the duration of paralysis
2 | CCC1(c2ccccc2)C(=O)NC(=O)NC1=O [PB, phenobarbital] | no such hepatotoxicity | extensive hepatic centrilobular necrosis | strongly elevated ALT levels and hepatic necrosis | induction of CYP2B10 mRNA | no response | not observed | significant increase | not detected | did not show any evidence of increased liver mass | increase in liver mass | not affected | not paralyzed | died | two animals from each group | <20 | >300 | significantly decreased the duration of paralysis

— patent publication US7186879B2, “Screening systems and methods for identifying modulators of xenobiotic metabolism” (Baylor College of Medicine, priority 2001, dated 2007)
